Source: PubChem BioAssay AID468 (The Scripps Research Institute Molecular Screening Center, 2006)
Active and inactive are the calls of the source. The rule behind the calls is not given here.

What follows are molecules tested against Sphingosine 1-phosphate receptor 1 (Homo sapiens) (UniProt P21453) (assay: S1P1 receptor agonists, dose response, cell-based, agonist mode, 60K MLSMR set (AID 468)). Conditions: S1P1 agonist cell-based assay, activation.
Sequence of Sphingosine 1-phosphate receptor 1 (Homo sapiens) (P21453 whole entry, looked up): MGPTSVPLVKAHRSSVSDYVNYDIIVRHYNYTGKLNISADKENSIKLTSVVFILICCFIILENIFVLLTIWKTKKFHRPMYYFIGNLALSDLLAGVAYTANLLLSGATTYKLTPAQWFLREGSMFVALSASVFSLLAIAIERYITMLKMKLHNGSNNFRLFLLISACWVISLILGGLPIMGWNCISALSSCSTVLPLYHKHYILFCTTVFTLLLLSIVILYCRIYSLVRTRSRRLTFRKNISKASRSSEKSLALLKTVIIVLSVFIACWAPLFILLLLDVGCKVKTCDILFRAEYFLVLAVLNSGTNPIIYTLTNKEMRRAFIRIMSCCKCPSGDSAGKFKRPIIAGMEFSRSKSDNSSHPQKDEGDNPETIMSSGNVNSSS

SMILES | EC50
CCC(=NCc1ccc2c(c1)OCO2)c1c(O)n(C2CCCCC2)c(=O)[nH]c1=O | 6.81 µM
COC(=O)CC1SC(=O)NC1=Nc1ccccc1 (stereo not drawn) | > 95 µM (inactive)
COc1ccc(/C(O)=C2/C(=O)C(=O)N(CC3CCCO3)C2c2cccc(OC)c2)cc1 (stereo not drawn) | > 95.1 µM (inactive)
CC(=O)Oc1ccc(N2C(=O)C3C(C2=O)C2(C)C=CC3(C)O2)cc1 (stereo not drawn) | inactive
CC1=C(C(=O)OCc2ccc3c(c2)OCO3)C(c2ccccc2)NC(=O)N1 (stereo not drawn) | 1.84 µM
C/C(N)=C(/C#N)C(=O)CSc1nc2cc(Cl)ccc2s1 | inactive
CCOc1ccc(C(C)=O)cc1N1C(=O)C2C3C=CC(O3)C2C1=O (stereo not drawn) | inactive
CC1=C(C(=O)OCc2ccc3c(c2)OCO3)C(c2ccc(F)cc2)NC(=O)N1 (stereo not drawn) | 0.437 µM
CC1(C)CC(=O)C(C=Nc2ccc3[nH]ncc3c2)=C(O)C1 | 5.07 µM
Cc1[nH]nc2c1C1(C(=O)N(Cc3ccc(Cl)cc3)c3ccccc31)C(C#N)=C(N)O2 (stereo not drawn) | inactive
CCC(=NC(C)c1ccccc1)c1c(O)n(C)c(=O)n(C)c1=O (stereo not drawn) | inactive
C/C(N)=C(/C#N)C(=O)CSc1nnc(SCc2ccc(Cl)cc2)s1 | 8.95 µM
COc1ccc(N2C(=O)CC(Sc3ncn[nH]3)C2=O)c(OC)c1 (stereo not drawn) | inactive
O=C1C2C3C=CC(CO)(O3)C2C(=O)N1c1ccccc1-c1ccccc1 (stereo not drawn) | 5.47 µM
CCCCc1ccc(C2C(C#N)=C(N)SC(N)=C2C#N)s1 | inactive
CCC(=NCCOc1ccc(Cl)cc1)c1c(O)n(C)c(=O)n(C)c1=O | 5.04 µM
CCOC(=O)c1cccc2c1-c1ccccc1/C2=N/O | inactive
COc1ccc(/C=N/O)cc1COc1ccc(NC(C)=O)cc1 | > 95 µM (inactive)
